From patent publication US9284271B2, “Compounds for the treatment of neurodegenerative diseases” (Katholieke Universiteit Leuven, K.U. Leuven R&D, priority 2010, dated 2016) come the findings set out here.

SMILES strings stand for the structures.

The test system of the experiment is M17-TAU P301L cells. As to the kind of experiment: Tau-induced toxicity experiment: LDH leakage of retinoic acid incubated M17-TAU P301L cells. Format: cell-based. The note with it: Homo sapiens, Neuroblastoma cell, 168 h; reduction of LDH activity of retinoic acid incubated M17-TAU P301L neuroblastoma cells; 7 days incubation; Promega Cytotox 96 assay. The source says: A TAU expression plasmid was constructed by sub-cloning the cDNA of human TAU-P301L (encoding for TAU with proline 301 substituted by a leucine residue) into mammalian expression vector pcDNA3.1 resulting in plasmid pcDNA3.1-TAU P301L. Plasmids pcDNA3.1 and pcDNA3.1-TAU P301L were transfected to human neuroblastoma cells ([…]; ATCC No. CRL-2267) and independent clonal lines with the plasmids stably integrated into the genome were selected. […] Expression of the TAU P301L genes in the cell lines was confirmed by Western analysis.
In degenerated or dead cells lactate dehydrogenase (LDH) is leaked out of the cells into the extracellular environment due to a loss of plasma-membrane integrity. This principle was used to determine cytotoxicity by quantifying the level of leaked LDH into the growth medium.
The detailed method for determining TAU cytotoxicity was as follows: From appropriate precultures of M17-3.1 and M17-TAU(P301L) cells were seeded at 2500 cells/cm2 in Optimem Reduced Serum without phenol red (Gibco, Cat. 31985-047) supplemented with 1% fetal calf serum, 1 mM sodium pyruvate, 1× non-essential amino acids, 500 μg/ml G418 0.5× antibiotic/antimycotic. After 3 h of incubation at 37° C./5% CO2 1 volume of Optimem Reduced Serum (same as described above; except without fetal calf serum) supplemented with 2.5 μM retinoic acid (RA) was added. The cells were further incubated for 7 days. Subsequently, LDH activity was determined using Promega Cytotox 96 Non-Radioactive cytotoxicity assay, (Cat. G1780) according the supplier's instructions.
The M17-TAU P301L cell line made it possible to assess the ability of novel compounds to counteract TAU cytotoxicity. […] These measurements were used to calculate EC50 values of table 2.
Exemplary compounds of the present invention are shown in table 2, with their chemical name and their EC50 value (expressed in nM) as determined from example 75 in the Tau-induced toxicity experiment.
In general terms: LDH in the medium is a marker of cell lysis.
In the case of `N#Cc1ccc(-c2cccc(C(=O)NCCc3c[nH]c4ccc(Cl)cc34)c2)cc1` [Cpd052, N-(2-(5-chloro-1H-indol-3-yl)ethyl)-4′-cyanobiphenyl-3-carboxamide], the EC50 came out at 0.112 µM.
`N#Cc1ccc(-c2ccc(C(=O)NCCc3c[nH]c4ccc(Cl)cc34)cc2)cc1` [Cpd053, N-(2-(5-chloro-1H-indol-3-yl)ethyl)-4′-cyanobiphenyl-4-carboxamide]: the concentration for a half-maximal effect (EC50) is 0.085 µM.
Turning to `O=C(NCCc1c[nH]c2ccc(Cl)cc12)c1ccccc1-c1ccccc1Cl` [Cpd054, 2′-chloro-N-(2-(5-chloro-1H-indol-3-yl)ethyl)biphenyl-2-carboxamide], the concentration for a half-maximal effect (EC50) amounted to 0.17 µM.
In the case of `O=C(NCCc1c[nH]c2ccc(Cl)cc12)c1cccc(-c2ccccc2Cl)c1` [Cpd055, 2′-chloro-N-(2-(5-chloro-1H-indol-3-yl)ethyl)biphenyl-3-carboxamide], the concentration giving a half-maximal response (EC50) is 0.158 µM.
The figure for `O=C(NCCc1c[nH]c2ccc(Cl)cc12)c1ccccc1-c1cccc(Cl)c1` [Cpd057, 3′-chloro-N-(2-(5-chloro-1H-indol-3-yl)ethyl)biphenyl-2-carboxamide] is 0.159 µM.
Molecule `O=C(NCCc1c[nH]c2ccc(Cl)cc12)c1cccc(-c2cccc(Cl)c2)c1` [Cpd058, 3′-chloro-N-(2-(5-chloro-1H-indol-3-yl)ethyl)biphenyl-3-carboxamide] showed an EC50 of 0.186 µM.
In turn, `O=C(NCCc1c[nH]c2ccc(Cl)cc12)c1ccc(-c2cccc(Cl)c2)cc1` [Cpd059, 3′-chloro-N-(2-(5-chloro-1H-indol-3-yl)ethyl)biphenyl-4-carboxamide] gave a concentration giving a half-maximal response (EC50) of 0.13 µM.
As for `O=C(NCCc1c[nH]c2ccc(Cl)cc12)c1cccc(-c2ccc(Cl)cc2)c1` [Cpd060, 4′-chloro-N-(2-(5-chloro-1H-indol-3-yl)ethyl)biphenyl-3-carboxamide], the midpoint of the response, the EC50, lay at 0.159 µM.
As to `O=C(NCCc1c[nH]c2ccc(Cl)cc12)c1ccc(-c2ccc(Cl)cc2)cc1` [Cpd061, 4′-chloro-N-(2-(5-chloro-1H-indol-3-yl)ethyl)biphenyl-4-carboxamide], the EC50 worked out at 0.111 µM.
Consider `O=C(NCCc1c[nH]c2ccc(Cl)cc12)c1ccccc1-c1ccc(Cl)cc1` [Cpd063, 4′-chloro-N-(2-(5-chloro-1H-indol-3-yl)ethyl)biphenyl-2-carboxamide], for which the concentration for a half-maximal effect (EC50) is 0.154 µM.
Consider `O=C(NCCc1c[nH]c2ccc(Cl)cc12)c1ccccc1-c1cccc(C(F)(F)F)c1` [Cpd064, N-(2-(5-chloro-1H-indol-3-yl)ethyl)-3′-(trifluoromethyl)biphenyl-2-carboxamide], for which a half-maximal response (EC50) required 0.418 µM. Compared with the last molecule, the EC50 is about 2.7-fold higher.
For the molecule `O=C(NCCc1c[nH]c2ccc(Cl)cc12)c1cccc(-c2ccccc2C(F)(F)F)c1` [Cpd065, N-(2-(5-chloro-1H-indol-3-yl)ethyl)-2′-(trifluoromethyl)biphenyl-3-carboxamide], the EC50 stood at 0.089 µM.
The molecule `O=C(NCCc1c[nH]c2ccc(Cl)cc12)c1ccc(-c2cccc(C(F)(F)F)c2)cc1` [Cpd066, N-(2-(5-chloro-1H-indol-3-yl)ethyl)-3′-(trifluoromethyl)biphenyl-4-carboxamide] had an EC50 of 0.092 µM.
For the molecule `O=C(NCCc1c[nH]c2ccc(Cl)cc12)c1cccc(-c2ccc(C(F)(F)F)cc2)c1` [Cpd068, N-(2-(5-chloro-1H-indol-3-yl)ethyl)-4′-(trifluoromethyl)biphenyl-3-carboxamide], a half-maximal response (EC50) required 0.367 µM.
The molecule `Cc1cccc(C)c1-c1cccc(C(=O)NCCc2c[nH]c3ccc(Cl)cc23)c1` [Cpd070, N-(2-(5-chloro-1H-indol-3-yl)ethyl)-2′,6′-dimethylbiphenyl-3-carboxamide] displayed a 50% effective concentration (EC50) of 0.606 µM.
The molecule `Cc1ccc(-c2ccccc2C(=O)NCCc2c[nH]c3ccc(Cl)cc23)cc1C` [Cpd071, N-(2-(5-chloro-1H-indol-3-yl)ethyl)-3′,4′-dimethylbiphenyl-2-carboxamide] registered an EC50 of 0.546 µM.
In turn, `O=C(NCCc1c[nH]c2ccc(Cl)cc12)c1ccc(-c2ccc(C(F)(F)F)cc2)cc1` [Cpd074, N-(2-(5-chloro-1H-indol-3-yl)ethyl)-4′-(trifluoromethyl)biphenyl-4-carboxamide] showed an EC50 of 0.2 µM.
The figure for `O=C(NCCc1c[nH]c2ccc(Cl)cc12)c1ccc(-c2ccccc2)nn1` [Cpd075, N-(2-(5-chloro-1H-indol-3-yl)ethyl)-6-phenylpyridazine-3-carboxamide] is 0.081 µM.

For orientation: EC50 means the concentration needed to bring the measured effect to its halfway point. A low value points to higher potency in that assay.
